Experimental data reported in patent US4727080A, “1-substituted derivatives of 6-fluoro-7-(pyrrol-1-yl)-1,4-dihydro-4-oxoquinoline-3-carboxylic acid, their preparation and their application as drugs” (Provesan S.A., priority 1984, dated 1988).
≈ marks a conversion by molar mass, not a printed value.

Columns and labels:
[1] = system: Proteus mirabilis ATCC 4675; experiment: "In vitro" MIC, Proteus mirabilis; format: cell-based; details: ATCC4675; Proteus mirabilis ATCC 4675; dextrose agar, 37° C., 20 hours; read-out: "In vitro" MIC
Procedure: (§1) Antimicrobial pharmacological activity (G. L. Daquet and Y. A. Chabbect, Techniques en bacteriologie (Techniques in bacteriology), vol. 3, Flammarion Medecine-Sciences, Paris, 1972, and W. B. Hugo and A. D. Rusell, Pharmaceutical Microbiology, Blackwell Scientific Publications, London (1977).
Proteus mirabilis ATCC 4675
(§2) A streak culture of each of the microorganisms is formed in tubes of antibiotics agar no. 1 and incubated for 20 hours at 37° C. A culture loop is then taken and a culture is formed in a tryptone-soya broth and incubated for 20 hours at 37° C. The resulting culture is diluted to 1/4 with Ringer's physiological solution to give a standardized suspension of 10^5 ufc/ml for each organism.
(§3) Starting from a solution of 1000 μg/ml in 0.1N NaOH, each product is diluted successively in dextrose agar (melted beforehand and kept at 50° C.) to give the following concentrations: 64-32-16-8-4-2-1-0.5-0.25-0.125 μg of derivative/ml of medium.
(§4) After this, each concentration of each product is divided up into Petri dishes of 10 cm diameter at a rate of 10 ml of medium per dish and using as many dishes as there are microorganisms to be tested.
(§5) Once the medium has cooled, the dishes are treated with the inoculations at a rate of 0.4 ml of inoculation per dish. They are spread out with a Drigalski loop and the supernatant is collected. The inoculated dishes are incubated at 37° C. for 20 hours.

[2] = system: Micrococcus flavus ATCC 10240; experiment: "In vitro" MIC, Micrococcus flavus; format: cell-based; details: ATCC10240; Micrococcus flavus ATCC 10240; dextrose agar, 37° C., 20 hours; read-out: "In vitro" MIC
Procedure: as §1
Micrococcus flavus ATTC 10240
as §2, §3, §4, §5

Shigella flexnerii = experiment: "In vitro" MIC, Shigella flexnerii; format: cell-based; details: 20 h, read-out: "In vitro" MIC
Procedure: as §1, §2, §3, §4, §5

Sarcina lutea ATCC 9341 = experiment: "In vitro" MIC, Sarcina lutea; format: cell-based; details: Micrococcus luteus, ATCC9341; Sarcina lutea ATCC 9341; dextrose agar, 37° C., 20 hours; read-out: "In vitro" MIC
Procedure: as §1, §2, §3, §4, §5

[3] = system: Salmonella typhimurium AMES 100; experiment: "In vitro" MIC, Salmonella typhimurium AMES 100; format: cell-based; details: Salmonella enterica; Salmonella typhimurium AMES 100; dextrose agar, 37° C., 20 hours; read-out: "In vitro" MIC
Procedure: as §1
Salmonella typhimurium AMES 100
as §2, §3, §4, §5

[4] = system: Salmonella typhimurium AMES 98; experiment: "In vitro" MIC, Salmonella typhimurium AMES 98; format: cell-based; details: Salmonella enterica; Salmonella typhimurium AMES 98; dextrose agar, 37° C., 20 hours; read-out: "In vitro" MIC
Procedure: as §1
Salmonella typhimurium AMES 98
as §2, §3, §4, §5

[5] = system: Staphylococcus aureus ATCC 5488/23; experiment: "In vitro" MIC, Staphylococcus aureus ATCC 5488/23; format: cell-based; details: ATCC5488; Staphylococcus aureus ATCC 5488/23; dextrose agar, 37° C., 20 hours; read-out: "In vitro" MIC
Procedure: as §1
Staphylococcus aureus ATCC 5488/23
as §2, §3, §4, §5

Proteus morganii CHSP-16 = experiment: "In vitro" MIC, Proteus morganii; format: cell-based; details: Morganella morganii, CHSP16; Proteus morganii CHSP-16; dextrose agar, 37° C., 20 hours; read-out: "In vitro" MIC
Procedure: as §1, §2, §3, §4, §5

[6] = system: Enterobacter aerogenes ATCC 15038; experiment: "In vitro" MIC, Enterobacter aerogenes; format: cell-based; details: Klebsiella aerogenes, ATCC15038; Enterobacter aerogenes ATCC 15038; dextrose agar, 37° C., 20 hours; read-out: "In vitro" MIC
Procedure: as §1
Enterobacter aerogenes ATCC 15038
as §2, §3, §4, §5

[7] = system: Pseudomonas aeruginosa 25115; experiment: "In vitro" MIC, Pseudomonas aeruginosa 25115; format: cell-based; details: Pseudomonas aeruginosa 25115; dextrose agar, 37° C., 20 hours; read-out: "In vitro" MIC
Procedure: as §1
Pseudomonas aeruginosa 25115
as §2, §3, §4, §5

Escherichia coli R-1513 = experiment: "In vitro" MIC, Escherichia coli R-1513; format: cell-based; details: R1513; Escherichia coli R-1513; dextrose agar, 37° C., 20 hours; read-out: "In vitro" MIC
Procedure: as §1, §2, §3, §4, §5

[8] = system: Bacillus subtilis ATCC 6633; experiment: "In vitro" MIC, Bacillus subtilis; format: cell-based; details: ATCC6633; Bacillus subtilis ATCC 6633; dextrose agar, 37° C., 20 hours; read-out: "In vitro" MIC
Procedure: as §1
Bacillus subtilis ATCC 6633
as §2, §3, §4, §5

Acute toxicity to mice = details: mouse, in vivo, ip, suspension in 5% gum arabic, mortality over 7 days
Procedure: The experimental animals used to determine this toxicity were albino mice of the C.F.L.P. strain and of both sexes, weighing between 19 and 25 grams. After an 18-hour fasting period with water "ad libitum", the derivatives forming the subject of the present invention are administered intraperitoneally as a suspension in 5% gum arabic. The volume of suspension administered was 0.4 ml/20 grams (20 ml/kg) in all cases, the concentration of the suspension being changed according to the dose administered.
One hour after administration of the derivatives, the animals are given a standard Panlab rat-mouse food. The mortality was observed over a period of 7 days. Differences in mortality between the sexes were not observed with any of the products.

[9] = system: Citrobacter freundii ATCC 11606; experiment: "In vitro" MIC, Citrobacter freundii; format: cell-based; details: ATCC11606; Citrobacter freundii ATCC 11606; dextrose agar, 37° C., 20 hours; read-out: "In vitro" MIC
Procedure: as §1
Citrobacter freundii ATCC 11606
as §2, §3, §4, §5

[10] = system: Enterobacter cloacae CHSP-20; experiment: "In vitro" MIC, Enterobacter cloacae; format: cell-based; details: CHSP20; Enterobacter cloacae CHSP-20; dextrose agar, 37° C., 20 hours; read-out: "In vitro" MIC
Procedure: as §1
Enterobacter cloacae CHSP-20
as §2, §3, §4, §5

[11] = system: Escherichia coli ATCC 10536; experiment: "In vitro" MIC, Escherichia coli ATCC 10536; format: cell-based; details: ATCC10536; Escherichia coli ATCC 10536; dextrose agar, 37° C., 20 hours; read-out: "In vitro" MIC
Procedure: as §1
Escherichia coli ATCC 10536
as §2, §3, §4, §5

[12] = system: Pseudomonas aeruginosa ADSA 47; experiment: "In vitro" MIC, Pseudomonas aeruginosa ADSA 47; format: cell-based; details: ADSA47; Pseudomonas aeruginosa ADSA 47; dextrose agar, 37° C., 20 hours; read-out: "In vitro" MIC
Procedure: as §1
Pseudomonas aeruginosa ADSA 47
as §2, §3, §4, §5

[13] = system: Serratia marcescens ATTC 13880; experiment: "In vitro" MIC, Serratia marcescens; format: cell-based; details: ATTC13880; Serratia marcescens ATTC 13880; dextrose agar, 37° C., 20 hours; read-out: "In vitro" MIC
Procedure: as §1
Serratia marcescens ATTC 13880
as §2, §3, §4, §5

[14] = system: Staphylococcus aureus ATCC 25178; experiment: "In vitro" MIC, Staphylococcus aureus ATCC 25178; format: cell-based; details: ATCC25178; Staphylococcus aureus ATCC 25178; dextrose agar, 37° C., 20 hours; read-out: "In vitro" MIC
Procedure: as §1
Staphylococcus aureus ATCC 25178
as §2, §3, §4, §5

[15] = system: Klebsiella pneumoniae ATCC 10031; experiment: "In vitro" MIC, Klebsiella pneumoniae; format: cell-based; details: ATCC10031; Klebsiella pneumoniae ATCC 10031; dextrose agar, 37° C., 20 hours; read-out: "In vitro" MIC
Procedure: as §1
Klebsiella pneumoniae ATCC 10031
as §2, §3, §4, §5

[16] = system: Streptococcus faecalis ATCC 10541; experiment: "In vitro" MIC, Streptococcus faecalis; format: cell-based; details: Enterococcus faecalis, ATCC10541; Streptococcus faecalis ATCC 10541; dextrose agar, 37° C., 20 hours; read-out: "In vitro" MIC
Procedure: as §1
Streptococcus faecalis ATCC 10541
as §2, §3, §4, §5

all microorganisms = experiment: "In vitro" antimicrobial activity compared with nalidixic acid, all microorganisms; format: cell-based; details: against all microorganisms
Procedure: as §1, §2, §3, §4, §5

`O=C(O)c1cn(C2CC2)c2cc(-n3cccc3)c(F)cc2c1=O` [Example 9, 6-fluoro-7-(pyrrol-1-yl)-1-cyclopropyl-1,4-dihydro-4-oxoquinoline-3-carboxylic acid] gave an MIC [1] of 0.5 µg/mL (≈ 1.6 µM), an MIC [2] of 0.5 µg/mL (≈ 1.6 µM) and an MIC (Shigella flexnerii) of 0.2 µg/mL (≈ 0.64 µM). For the same compound, the MIC (Sarcina lutea ATCC 9341) was 0.5 µg/mL (≈ 1.6 µM), the MIC [3] was < 0.06 µg/mL and the MIC [4] was 1 µg/mL (≈ 3.2 µM). For the same compound, the MIC [5] was < 0.06 µg/mL, the MIC (Proteus morganii CHSP-16) was 0.5 µg/mL (≈ 1.6 µM) and the MIC [6] was 0.12 µg/mL (≈ 0.384 µM). It also gave an MIC [7] of 1 µg/mL (≈ 3.2 µM), an MIC (Escherichia coli R-1513) of 0.12 µg/mL (≈ 0.384 µM) and an MIC [8] of 0.25 µg/mL (≈ 0.801 µM). For the same compound, the LD50 at 168 h (Acute toxicity to mice) was > 1600 mg/kg, the MIC [9] was 0.25 µg/mL (≈ 0.801 µM) and the MIC [10] was 0.12 µg/mL (≈ 0.384 µM). The MIC [11] was < 0.06 µg/mL, the MIC [12] was 2 µg/mL (≈ 6.4 µM) and the MIC [13] was 0.5 µg/mL (≈ 1.6 µM). The MIC [14] was < 0.06 µg/mL, the MIC [15] was < 0.06 µg/mL and the MIC [16] was 0.25 µg/mL (≈ 0.801 µM). The “activity compared with nalidixic acid” value (all microorganisms) was “greater than the activity of nalidixic acid”.
